Measured values: US9676760B2, “Fused heterocyclic compounds as ion channel modulators” (Gilead Sciences, Inc., priority 2011, dated 2017)

Assays:
[1] = molecular target: T1, wild-type human cardiac sodium channel, hNav1.5 (Homo sapiens, UniProt Q14524); experiment: Late INa screening assay (QPatch whole cell patch clamp, HEK293); assay type: cell-based
How it was run: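 HEK293 stably expressing hNav1.5 without beta subunits, recorded at 23-25° C. Late current was induced by 10 μM tefluthrin. Cells were depolarized from −120 mV to −20 mV for 250 ms at 0.1 Hz. Compounds were tested at 1 μM in extracellular solution, with baseline taken in 0Na-ECF; output is percent block of late INa.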

[2] = molecular target: T1, wild-type human cardiac sodium channel, hNav1.5; experiment: Peak INa screening assay (tonic and use-dependent block); assay type: cell-based; details: compound at 1 μM
Procedure: The late sodium current (Late INa) and peak sodium current (Peak INa) assays are performed on an automated electrophysiology platform, QPatch 16× (Sophion Bioscience, Copenhagen, Denmark), which uses the whole cell patch clamp technique to measure currents through the cell membrane of up to 16 cells at a time. The assay uses an HEK293 (human embryonic kidney) cell line heterologously expressing the wild-type human cardiac sodium channel, hNav1.5, purchased from Millipore (Billerica, Mass.). No beta subunits were coexpressed with the Na channel alpha subunit. Cells are maintained with standard tissue culture procedures and stable channel expression is maintained with 400 μg/mL Geneticin in the culture medium. Cells isolated for use on QPatch are incubated for 5 minutes in Detachin 1×(Genlantis, San Diego, USA) at 37° C. to ensure that 80-90% of the cells are single and not part of a cell cluster. Experiments are carried out at 23-25° C.
For both the Late INa and Peak INa assays, series resistance compensation is set to 100% and series resistance and whole-cell compensation are performed automatically. Currents are digitized at 25 kHz and low-pass filtered at 12 kHz and 10 kHz for the late and peak INa assays, respectively. Currents through open sodium channels are automatically recorded and stored in the Sophion Bioscience Oracle database (Sophion Bioscience, Copenhagen, Denmark). Analysis is performed using QPatch Assay and database software and data are compiled in Excel.
Compound stocks are routinely made by the Gilead Sample Bank in plastic vials to 10 mM in dimethyl sulfoxide (DMSO). In some cases, when compounds are not soluble in DMSO, they are made in 100% ethanol. Stocks are sonicated as necessary. The extracellular solution for screening Late INa is composed of: 140 mM NaCl, 4 mM KCl, 1.8 mM CaCl2, 0.75 mM MgCl2 and 5 mM HEPES with pH adjusted to 7.4 using NaOH. The intracellular solution used to perfuse the inside of the cells for both the Late INa and Peak INa assays contains: 120 mM CsF, 20 mM CsCl, 5 mM EGTA, 5 mM HEPES and pH adjusted to 7.4 with CsOH. Compounds are diluted in extracellular solution to 1 μM in glass vials and then transferred to glass well plates before robotic addition to the cells. The 0 mM Na extracellular solution (0Na-ECF) used at the end of each experiment for the Late INa and Peak INa assays to measure baseline current contains: 140 mM N-methyl-D-glucamine; 4 mM KCl; 1.8 mM CaCl2; 0.75 mM MgCl2; 5 mM HEPES and pH was adjusted to 7.4 with HCl.
Compounds were also evaluated for their effect in several other assays, including their effect on Peak INa. […] Since the peak INa in the cells used herein can be very large, introducing artifacts in the recording, the concentration of Na^+ in the bath can be reduced to 20 mM and a nonpermeant cation added to compensate for the Na^+ that was removed to maintain the osmolarity and ionic strength of the solution (see solution details below).
A low stimulation frequency of 0.1 Hz was used to determine the effect of the test compound when the channel spent most of the time in the resting (closed) state and provides information about Tonic Block (TB). A higher stimulation frequency (3 Hz) was used to measure block of the channel when it spent more time in the activated and inactivated states and provided a measure of Use-Dependent Block (UDB). Use-dependent block refers to the accumulation of block with increased frequency of channel activation.

[3] = HEK293, percent block of late INa, compound at 1 μM, 10 μM Tefluthrin, read-out: Late INa 1 μM
[4] = tonic block of peak INa, 0.1 Hz, read-out: Peak TB 1 μM
[5] = use-dependent block of peak INa, 3 Hz, read-out: Peak UDB 1 μM

T1 sequence (Q14524 whole entry): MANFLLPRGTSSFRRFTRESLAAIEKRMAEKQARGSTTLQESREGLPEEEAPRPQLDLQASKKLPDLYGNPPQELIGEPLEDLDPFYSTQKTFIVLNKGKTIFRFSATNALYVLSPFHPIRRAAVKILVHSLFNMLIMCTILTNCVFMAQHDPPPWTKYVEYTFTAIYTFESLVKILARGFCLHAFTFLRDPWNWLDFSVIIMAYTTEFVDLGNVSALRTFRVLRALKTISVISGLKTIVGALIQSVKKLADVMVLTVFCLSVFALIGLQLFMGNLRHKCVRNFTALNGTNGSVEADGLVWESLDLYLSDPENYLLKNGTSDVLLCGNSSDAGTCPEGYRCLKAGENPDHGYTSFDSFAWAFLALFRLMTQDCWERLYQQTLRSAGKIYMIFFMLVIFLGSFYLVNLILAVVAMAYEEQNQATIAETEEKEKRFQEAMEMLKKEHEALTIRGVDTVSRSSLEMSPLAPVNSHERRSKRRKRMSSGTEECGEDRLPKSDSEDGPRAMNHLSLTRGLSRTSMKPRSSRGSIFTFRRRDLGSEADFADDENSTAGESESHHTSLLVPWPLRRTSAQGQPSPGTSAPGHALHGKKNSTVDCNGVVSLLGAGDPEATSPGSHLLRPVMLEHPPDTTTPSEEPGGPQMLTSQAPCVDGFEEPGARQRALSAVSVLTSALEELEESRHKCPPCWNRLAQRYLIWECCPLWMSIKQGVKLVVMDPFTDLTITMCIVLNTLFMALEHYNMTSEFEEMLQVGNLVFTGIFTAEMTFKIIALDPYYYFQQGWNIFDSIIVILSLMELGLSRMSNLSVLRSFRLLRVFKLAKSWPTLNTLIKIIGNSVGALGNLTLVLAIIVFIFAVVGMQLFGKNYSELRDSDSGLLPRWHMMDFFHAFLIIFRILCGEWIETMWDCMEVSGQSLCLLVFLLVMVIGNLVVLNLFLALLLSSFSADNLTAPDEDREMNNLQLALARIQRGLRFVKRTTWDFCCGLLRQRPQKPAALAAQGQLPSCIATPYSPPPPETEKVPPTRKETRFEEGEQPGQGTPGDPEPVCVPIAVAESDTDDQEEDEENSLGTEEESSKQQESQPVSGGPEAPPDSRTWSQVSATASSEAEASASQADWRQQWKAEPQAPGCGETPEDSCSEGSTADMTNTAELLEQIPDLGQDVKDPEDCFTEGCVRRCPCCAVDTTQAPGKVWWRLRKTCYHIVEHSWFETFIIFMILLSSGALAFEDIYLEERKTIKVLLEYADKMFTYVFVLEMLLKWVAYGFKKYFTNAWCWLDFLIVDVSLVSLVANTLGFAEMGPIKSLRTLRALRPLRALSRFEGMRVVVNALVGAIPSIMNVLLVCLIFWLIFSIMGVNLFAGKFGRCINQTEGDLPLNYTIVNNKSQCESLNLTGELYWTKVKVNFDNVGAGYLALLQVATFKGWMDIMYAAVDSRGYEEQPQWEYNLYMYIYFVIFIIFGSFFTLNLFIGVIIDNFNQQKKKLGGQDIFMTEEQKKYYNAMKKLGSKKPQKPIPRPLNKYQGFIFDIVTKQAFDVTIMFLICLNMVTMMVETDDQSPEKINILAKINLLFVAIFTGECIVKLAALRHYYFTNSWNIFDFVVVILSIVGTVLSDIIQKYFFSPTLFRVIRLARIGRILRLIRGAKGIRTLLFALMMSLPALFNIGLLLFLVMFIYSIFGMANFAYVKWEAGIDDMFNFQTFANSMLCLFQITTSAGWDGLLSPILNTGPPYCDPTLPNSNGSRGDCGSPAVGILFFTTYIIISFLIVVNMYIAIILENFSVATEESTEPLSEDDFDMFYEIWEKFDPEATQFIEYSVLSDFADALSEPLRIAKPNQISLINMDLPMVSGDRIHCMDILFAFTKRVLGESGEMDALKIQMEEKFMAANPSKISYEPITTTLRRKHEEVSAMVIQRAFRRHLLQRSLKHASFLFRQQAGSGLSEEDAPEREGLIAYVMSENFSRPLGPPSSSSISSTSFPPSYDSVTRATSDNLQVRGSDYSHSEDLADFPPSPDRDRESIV

Row | SMILES | inhibition at 1 µM [1, 3] [%] | inhibition at 1 µM [2, 4] [%] | inhibition at 1 µM [2, 5] [%] | inhibition at 1 µM ([1]; HEK293, % Inhibition at 1 uM, read-out: Late INa*) [%]
1 | O=C1c2cc(-c3ccc(C(F)(F)F)cc3)ccc2OCCN1Cc1ccccc1 [II-141, 4-benzyl-7-(4-(trifluoromethyl)phenyl)-3,4-dihydrobenzo[f][1,4]oxazepin-5(2H)-one] | 73 | 40 | 40 | –
2 | O=C1c2cc(-c3ccc(OCC4CCC4)cc3)ccc2OCCN1Cc1ncccn1 [II-144, 7-(4-(cyclobutylmethoxy)phenyl)-4-(pyrimidin-2-ylmethyl)-3,4-dihydrobenzo[f][1,4]oxazepin-5(2H)-one] | 68 | 34 | 41 | –
3 | O=C1c2cc(-c3ccc(OC(F)(F)F)cc3)ccc2OCCN1Cc1ccn(C(F)F)n1 [II-147, 4-((1-(difluoromethyl)-1H-pyrazol-3-yl)methyl)-7-(4-(trifluoromethoxy)phenyl)-3,4-dihydrobenzo[f][1,4]oxazepin-5(2H)-one] | 54 | 13 | 6 | –
4 | O=C1c2cc(-c3ccc(CC(F)(F)F)cc3)ccc2OCCN1Cc1ccccn1 [II-151, 4-(pyridin-2-ylmethyl)-7-(4-(2,2,2-trifluoroethyl)phenyl)-3,4-dihydrobenzo[f][1,4]oxazepin-5(2H)-one] | 51 | 13 | 14 | –
5 | CCn1ccc(CN2CCOc3ccc(-c4ccc(OC(F)(F)F)cc4)cc3C2=O)n1 [II-153, 4-((1-ethyl-1H-pyrazol-3-yl)methyl)-7-(4-(trifluoromethoxy)phenyl)-3,4-dihydrobenzo[f][1,4]oxazepin-5(2H)-one] | 56 | 15 | 13 | –
6 | Cc1cnn(CN2CCOc3ccc(-c4ccc(OC(F)(F)F)cc4)cc3C2=O)c1 [II-155, 4-((4-methyl-1H-pyrazol-1-yl)methyl)-7-(4-(trifluoromethoxy)phenyl)-3,4-dihydrobenzo[f][1,4]oxazepin-5(2H)-one] | 38 | 13 | 11 | –
7 | O=C1c2cc(-c3ccc(OC(F)(F)F)cc3)ccc2OCCN1Cn1cc(Cl)cn1 [II-156, 4-((4-chloro-1H-pyrazol-1-yl)methyl)-7-(4-(trifluoromethoxy)phenyl)-3,4-dihydrobenzo[f][1,4]oxazepin-5(2H)-one] | 48 | 23 | 13 | 48
8 | O=C1c2cc(-c3ccc(C(F)F)cc3)ccc2OCCN1Cc1ccccn1 [II-157, 7-(4-(difluoromethyl)phenyl)-4-(pyridin-2-ylmethyl)-3,4-dihydrobenzo[f][1,4]oxazepin-5(2H)-one] | 43 | 13 | 16 | –
9 | O=C1c2cc(-c3ccc(Cl)c(F)c3)ccc2OCCN1Cc1ccccn1 [II-158, 7-(4-chloro-3-fluorophenyl)-4-(pyridin-2-ylmethyl)-3,4-dihydrobenzo[f][1,4]oxazepin-5(2H)-one] | 58 | 34 | 26 | –
10 | O=C1c2cc(-c3ccc(OC(F)(F)F)cc3)cc(F)c2OCCN1Cc1ccccc1 [II-165, 4-benzyl-9-fluoro-7-(4-(trifluoromethoxy)phenyl)-3,4-dihydrobenzo[f][1,4]oxazepin-5(2H)-one] | 56 | 15 | 30 | –
11 | O=C1c2cc(-c3ccc(C(F)(F)F)cc3)cc(F)c2OCCN1Cc1ccccc1 [II-166, 4-benzyl-9-fluoro-7-(4-(trifluoromethyl)phenyl)-3,4-dihydrobenzo[f][1,4]oxazepin-5(2H)-one] | 53 | 20 | 34 | –
12 | O=C1c2cc(-c3ccc(OC(F)(F)F)cc3)c(F)cc2OCCN1Cc1ccccc1 [II-167, 4-benzyl-8-fluoro-7-(4-(trifluoromethoxy)phenyl)-3,4-dihydrobenzo[f][1,4]oxazepin-5(2H)-one] | 56 | 20 | 25 | –
13 | O=C1c2cc(-c3ccc(C(F)(F)F)cc3)c(F)cc2OCCN1Cc1ccccc1 [II-168, 4-benzyl-8-fluoro-7-(4-(trifluoromethyl)phenyl)-3,4-dihydrobenzo[f][1,4]oxazepin-5(2H)-one] | 44 | 36 | 47 | –
14 | O=C1c2cc(-c3ccc(Cl)c(F)c3)ccc2OCCN1Cc1ncccc1F [II-169, 7-(4-chloro-3-fluorophenyl)-4-((3-fluoropyridin-2-yl)methyl)-3,4-dihydrobenzo[f][1,4]oxazepin-5(2H)-one] | 65 | 23 | 23 | –
15 | O=C1c2cc(-c3ccc(C(F)(F)F)cc3F)ccc2OCCN1Cc1ncccc1F [II-170, 7-(2-fluoro-4-(trifluoromethyl)phenyl)-4-((3-fluoropyridin-2-yl)methyl)-3,4-dihydrobenzo[f][1,4]oxazepin-5(2H)-one] | 66 | 36 | 31 | –
16 | Cc1cncc(CN2CCOc3ccc(-c4ccc(OC(F)(F)F)cc4)cc3C2=O)n1 [II-175, 4-((6-methylpyrazin-2-yl)methyl)-7-(4-(trifluoromethoxy)phenyl)-3,4-dihydrobenzo[f][1,4]oxazepin-5(2H)-one] | 53 | 21 | 16 | –
17 | O=C1c2cc(-c3ccc(C(F)(F)F)cc3)ccc2OCCN1Cc1ncccc1F [II-176, 4-((3-fluoropyridin-2-yl)methyl)-7-(4-(trifluoromethyl)phenyl)-3,4-dihydrobenzo[f][1,4]oxazepin-5(2H)-one] | 68 | 45 | 44 | –
18 | Cn1ccnc1CN1CCOc2ccc(-c3ccc(OC(F)(F)F)cc3)cc2C1=O [II-186, 4-((1-methyl-1H-imidazol-2-yl)methyl)-7-(4-(trifluoromethoxy)phenyl)-3,4-dihydrobenzo[f][1,4]oxazepin-5(2H)-one] | 55 | 20 | 30 | –
19 | O=C1c2cc(-c3ccc(OC(F)(F)F)cc3)ccc2OCCN1Cc1nccn1Cc1ccccc1 [II-187] | 62 | 9 | 21 | –
20 | O=C1c2cc(-c3ccc(OC(F)(F)F)cc3)ccc2OCCN1Cc1cn2ccccc2n1 [II-189, 4-(imidazo[1,2-a]pyridin-2-ylmethyl)-7-(4-(trifluoromethoxy)phenyl)-3,4-dihydrobenzo[f][1,4]oxazepin-5(2H)-one] | 53 | 23 | 28 | –
21 | Cn1cc(C(=O)N2CCOc3ccc(-c4ccc(OC(F)(F)F)cc4)cc3C2)cn1 [III-12, (1-methyl-1H-pyrazol-4-yl)(7-(4-(trifluoromethoxy)phenyl)-2,3-dihydrobenzo[f][1,4]oxazepin-4(5H)-yl)methanone] | 39 | 10 | 17 | –
22 | O=C(c1cc[nH]n1)N1CCOc2ccc(-c3ccc(OC(F)(F)F)cc3)cc2C1 [III-15, (1H-pyrazol-3-yl)(7-(4-(trifluoromethoxy)phenyl)-2,3-dihydrobenzo[f][1,4]oxazepin-4(5H)-yl)methanone] | 50 | 19 | 18 | –
